Test results published in patent US20260234165A1, “MACROCYCLIC COMPOUNDS, PREPARATION METHOD THEREFOR, AND USE THEREOF” (GENFLEET THERAPEUTICS (SHANGHAI) INC., priority 2004, published 2026).
Where two headings read alike, the source gives them in different places.

How the values were obtained:
Assay type in all cases: cell-based, human
[1] = system: AsPC-1 cells (KRAS G12D mutation); assay: 3D cell proliferation assay (CellTiter Glo-3D), AsPC-1; conditions: medium with 2% FBS, read-out: AsPC-1 AP IC50
From the text: MIA PaCa-2 cells were purchased from ATCC, Cat. No. CRL-1420; AsPC-1 cells were purchased from ATCC, Cat. No. CRL-1682; NCI-H441 cells were purchased from ATCC, Cat. No. HTB-174: NCI-H1975 cells were purchased from ATCC. Cat. No. CRL-5908; DMEM medium was purchased from Gibco, Cat. No. 11995-065: RPMI-1040 medium was purchased from Gibco. Cat. No. H 18754093; FBS was purchased from Gibco, Cat. No. 10099-141C. penicillin, streptomycin double-antibiotic solution (PS) was purchased from Gibco, Cat. No. 15140-122; Horse serum was purchased from Gibco. Cat. No. 16050130: trypsin (containing EDTA) was purchased from Gibco, Cat. No. 25200-072; DMSO was purchased from VWRAMRESCO, Cat. No. 0231-500ML; 384-well cell culture plates were purchased from Corning, Cat. No. 3830; white-bottomed, opaque 384-well assay plates were purchased from Corning, Cat. No. 3570. CellTiter Glo-3D) kit was purchased from Promega. Cat. No. G9683; cell counter was purchased from CHEMOMETEC, model: NC-200: microplate reader was purchased from PerkinElmer, model: EnVision.
MIA PaCa-2, a human pancreatic cancer cell strain endogenously containing a KRAS^G12C mutation, was cultured in a complete medium containing DMEM+10% FBS+2.5% Horse serum+1% PS. AsPC-1, a human pancreatic cancer cell strain endogenously containing a […] mutation, was cultured in a complete medium containing RPMI-1640+10% FBS+1% PS. NCI-H441 cells, a human lung cancer cell strain endogenously containing a […] mutation, were cultured in a complete medium containing RPMI-1640+10% FBS+1% PS. NCI-H1975, a KRAS wild-type human lung cancer cell strain whose cell proliferation depends on KRAS activity, was cultured in a complete medium containing RPMI-1640+10% FBS+1% PS.
The cells were digested with trypsin (containing EDTA), collected in their respective low-serum complete media containing 2% FBS (for MIA Paca-2 cell culture: DMEM+2% FBS+0.5% Horse serum+1% PS), and counted. After the cell density was adjusted as required, 200 MIA PaCa-2 cells, 800 AsPC-1 cells, 800 NCI-H441 cells, or 400 NCI-H1975 cells per well were seeded into a 384-well cell culture plate, with the volume of the medium in each well being 45 μL. The cell culture plate was incubated in an incubator at 37° C. with 5% CO2, overnight. A series of 3.16-fold gradient dilutions of a 1000× compound stock solution were prepared with DMSO, and then diluted 100-fold with the complete medium containing 2% FBS described above to give 10- compound stock solutions. On the day after cell seeding, 5 μL of the 10- compound stock solution was added to each cell culture well. As a result, the final concentration of the compound in the cell culture well became 1×, and the DMSO content in the well was 0.1%. In addition to the compound-treated wells described above, cell-containing DMSO control wells (with 5 μL of the complete medium containing 1% DMSO added to each well) and cell-free medium control wells (containing 50 μL of the complete medium with 2% FBS) were also set. The culture plate was incubated in an incubator at 37° C. with 5% CO2 for another 5 days, and then 30 μL of CellTiter-Glo working solution was added to each well. The mixture was well mixed, incubated for 30 min, left to stand at room temperature for 30 min, and then transferred to a white-bottomed, opaque 384-well assay plate at 40 μL/well. The chemiluminescence values (RLU) were measured using a microplate reader, and the cell proliferation inhibition rate for each well was calculated: IR (%)=(RLUDMSO—RLUcompound)/(RLUDMSO−RLUblank)×100%, where RLUDMSO is the average RLU signal value from the DMSO control well samples, RLUblank is the average RLU signal value from the medium control well samples, and RLUcompound is the RLU signal value from the compound-treated well samples. […]

[2] = system: p-ERK in NCI-H441 cells (KRAS G12V mutation); assay: Cell p-ERK assay (HTRF) in NCI-H441 cells; conditions: NCI-H441 cells, 3 h compound incubation, HTRF p-ERK T202/Y204, read-out: H441 p-ERK IC50
How it was run: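 AsPC-1 (10000/well) or NCI-H441 (20000/well) cells were seeded in RPMI-1640 with 10% FBS, grown overnight, then exposed to 3.16-fold compound dilutions (0.1% DMSO) for 3 h at 37 °C. Lysates were read for phospho-ERK T202/Y204 by HTRF; IC50 came from four-parameter fits of inhibition versus DMSO and blank wells.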

NCI-H441 cells = assay: 3D cell proliferation assay (CellTiter Glo-3D), NCI-H441; conditions: medium with 2% FBS, read-out: H441 AP IC50
How it was run: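 Luminescence read-out (CellTiter-Glo 3D) after 5-day compound exposure at 37 °C, 5% CO2. Cells: NCI-H441 and AsPC-1, 800/well, RPMI-1640 + 2% FBS, 0.1% DMSO final. IC50 by four-parameter fit of % inhibition against log concentration.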

[3] = Homo sapiens, ASPC1, 3D cell proliferation (CellTiter Glo-3D)
[4] = Homo sapiens, NCI-H441, 3D cell proliferation (CellTiter Glo-3D)
[5] = 3D cell proliferation (CellTiter Glo-3D)

Structure (SMILES) | IC50 [1, 3] [nM] | IC50 ([2]; Homo sapiens, NCI-H441, 3 h) [nM] | IC50 (NCI-H441 cells; [4]) [nM] | IC50 [1, 5] [nM] | IC50 [2] [nM] | IC50 (NCI-H441 cells; [5]) [nM]
CO[C@@H](C)c1ncc(C#CCN2CCS(=O)(=O)CC2)cc1-c1c2c3cc(ccc3n1C(C)C)-c1csc(n1)C[C@H](Nc1nnc3cc(C)ccn13)C(=O)N1CCC[C@H](N1)C(=O)OCC(C)(C)C2 (atropisomer, axis not shown; (Ra)) [Compound Z913-1, (6^3S,4S,Z)—(Ra)-1^1-(5-(3-(1,1-dioxidothiomorpholino)prop-1-yn-1-yl)-2-((S)-1-methoxyethyl)pyridin-3-yl)-1′-isopropyl-10,10-dimethyl-4-((7-methyl-[1,2,4]triazolo[4,3-a]pyridin-3-yl)amino)-6^1,6^2,6^3,6^4,6^5,6^6-hexahydro-1^1H-8-oxa-2(4,2)-thiazola-1(5,3)-indola-6(1.3)-pyridazinacycloundecaphane-5,7-dione] | 8.88 | – | 4.18 | – | – | –
CCn1c(-c2cc(C#CCN3CCC(F)(F)CC3)cnc2[C@H](C)OC)c2c3cc(ccc31)-c1csc(n1)C[C@H](Nc1nnc3cc(C)ccn13)C(=O)N1CCC[C@H](N1)C(=O)OCC(C)(C)C2 (atropisomer, axis not shown; (Ra)) [Compound Z958, (6^3S,4S,Z)—(Ra)-1-(5-(3-(4,4-difluoropiperidin-1-yl)prop-1-yn-1-yl)-2-((S)-1-methoxyethyl)pyridin-3-yl)-1^1-ethyl-10,10-dimethyl-4-((7-methyl-[1,2,4]triazolo[4,3-a]pyridin-3-yl)amino)-6^1,6^2,6^3,6^4,6^5,6^6-hexahydro-1^1H-8-oxa-2(4,2)-thiazola-1(5,3)-indola-6(1,3)-pyridazinacycloundecaphane-5,7-dione] | 6.12 | 5.78 | 4.93 | – | – | –
CCn1c(-c2cc(C#CCN3CCOC[C@@H](O)C3)cnc2[C@H](C)OC)c2c3cc(ccc31)-c1csc(n1)C[C@H](Nc1nnc3cc(C)ccn13)C(=O)N1CCC[C@H](N1)C(=O)OCC(C)(C)C2 (atropisomer, axis not shown; (Ra)) [Compound Z966, (6^3S,4S,Z)-1^1-ethyl-(Ra)-1^2-(5-(3-((S)-6-hydroxy-1,4-oxazepan-4-yl)prop-1-yn-1-yl)-2-((S)-1-methoxyethyl)pyridin-3-yl)-10,10-dimethyl-4-((7-methyl-[1,2,4]triazolo[4,3-a]pyridin-3-yl)amino)-6^1,6^2,6^3,6^4,6^5,6^6-hexahydro-1^1H-8-oxa-2(4,2)-thiazola-1(5,3)-indola-6(1,3)-pyridazinacycloundecaphane-5,7-dione] | 9.41 | – | 4.91 | – | – | –
CCn1c(-c2cc(C#CCN3CC(C#N)C3)cnc2[C@H](C)OC)c2c3cc(ccc31)-c1csc(n1)C[C@H](Nc1nnc3cc(C)ccn13)C(=O)N1CCC[C@H](N1)C(=O)OCC(C)(C)C2 (atropisomer, axis not shown; (Ra)) [Compound Z974, 1-(3-(5-((6^3S,4S,Z)-1^1-ethyl-10,10-dimethyl-4-((7-methyl-[1,2,4]triazolo[4,3-a]pyridin-3-yl)amino)-5,7-dioxo-6^1,6^2,6^3,6^4,6^5,6^6-hexahydro-1^1H-8-oxa-2(4,2)-thiazola-1(5,3)-indola-6(1,3)-pyridazinacycloundecaphane-1^2-yl)-6-(Ra)—((S)-1-methoxyethyl)pyridin-3-yl)prop-2-yn-1-yl)azetidine-3-carbonitrile] | 5.6 | 2.12 | 3.46 | – | – | –
CCn1c(-c2cc(C#CCN3CCCOCC3)cnc2[C@H](C)OC)c2c3cc(ccc31)-c1csc(n1)C[C@H](Nc1nnc3cc(C)ccn13)C(=O)N1CCC[C@H](N1)C(=O)OCC(C)(C)C2 [Compound Z955, (6^3S,4S2)-1^2-(5-(3-(1,4-oxazepan-4-yl)prop-1-yn-1-yl)-2-((S)-1-methoxyethyl)pyridin-3-yl)-1^1-ethyl-10,10-dimethyl-4-((7-methyl-[1,2,4]triazolo[4,3-a]pyridin-3-yl)amino)-6^1,6^2,6^3,6^4,6^5,6^6-hexahydro-1^1H-8-oxa-2(4,2)-thiazola-1(5,3)-indola-6(1,3)-pyridazinacycloundecaphane-5J7-dione] | 4.82 | 2.6 | 2.96 | – | – | –

More lines, now with the values ahead:

IC50 [1, 3] [nM] | IC50 ([2]; Homo sapiens, NCI-H441, 3 h) [nM] | IC50 (NCI-H441 cells; [4]) [nM] | IC50 [1, 5] [nM] | IC50 [2] [nM] | IC50 (NCI-H441 cells; [5]) [nM] | Structure (SMILES)
2.07 | 0.49 | 0.66 | – | – | – | CCn1c(-c2cc(C#CC34CCCN3CCC4)cnc2[C@H](C)OC)c2c3cc(ccc31)-c1csc(n1)C[C@H](NC(=O)[C@H]1[C@H](C)[C@@H]1C)C(=O)N1CCC[C@H](N1)C(=O)OCC(C)(C)C2 (atropisomer, axis not shown; (Ra)) [Compound Z794, (1r,2R,3S)—N-((6^3S,4S,Z)—(Ra)-1^2-ethyl-1^2-(2-((S)-1-methoxyethyl)-5-((tetrahydro-1H-pyrrolizin-7a(5H)-yl)ethynyl)pyridin-3-yl)-10,10-dimethyl-5,7-dioxo-6^1,6^2,6^3,6^4,6^5,6^6-hexahydro-1^1H-8-oxa-2(4,2)-thiazola-1(5,3)-indola-6(1,3)-pyridazinacycloundecaphane-4-yl)-2,3-dimethylcyclopropane-1-carboxamide]
– | – | – | 6.69 | 2.63 | 2.47 | CCn1c(-c2cc(C#CCN3CCC(=O)N(C)CC3)cnc2[C@H](C)OC)c2c3cc(ccc31)-c1csc(n1)C[C@H](Nc1nnc3cc(C)ccn13)C(=O)N1CCC[C@H](N1)C(=O)OCC(C)(C)C2 (atropisomer, axis not shown; (Ra)) [Compound Z957, (6^3S,4S2)-1-(5-(3-(4-methyl-1,4-diazepan-5-one-1-yl)prop-1-yn-1-yl)-(Ra)-2-((S)-1-methoxyethyl)pyridin-3-yl)-1^1-ethyl-10,10-dimethyl-4-((7-methyl-[,2,4]triazolo[4,3-a]pyridin-3-yl)amino)-6^1,6^2,6^3,6^4,6^5,6^6-hexahydro-1^1H-8-oxa-2(4,2)-thiazola-1(5,3)-indola-6(1,3)-pyridazinacycloundecaphane-5,7-dione]
565 | – | 446 | – | – | – | CCn1c(-c2cccnc2[C@H](C)OC)c2c3cc(ccc31)-c1csc(n1)C[C@H](NC(=O)C(C)(C)F)C(=O)N1CCC[C@H](N1)C(=O)OCC(C)(C)C2 (single isomer, unassigned) [Compound Z1]
– | – | – | 151 | 61.3 | 125 | CCn1c(-c2cc(C(C)N3CCN(C)CC3)cnc2[C@H](C)OC)c2c3cc(ccc31)-c1csc(n1)C[C@H](NC(=O)[C@H]1[C@H](C)[C@@H]1C)C(=O)N1CCC[C@H](N1)C(=O)OCC1(CC1)C2 (stereo partly drawn) [Compound Z456]
